Legend:
cannabinoid receptors [1] = experiment: Mouse tetrad model, antagonistic effect against Win 55212-2; assay type: in vivo, Male NMRI mice; set-up: unit not given here; conditions: 5 mg/kg i.v. prior to Win 55212-2 in a dose of 1,25mg/kg i.v.
Excerpt: (§1) Substances with affinity for cannabinoid receptors are known to produce a wide range of pharmacological effects. It is also known that intravenous administration of a substance with affinity for cannabinoid receptors in mice produces analgesia , hypothermia, sedation and catalepsy. Individually, none of these effects can be considered as proof that a tested substance has affinity for cannabinoid-receptors, since all of these effects are common for various classes of centrally active agents. However, substances, which show all of these effects, i.e. substances that are active in this so-called tetrad model are considered to have affinity for the cannabinoid receptors. It has further been shown that cannabinoid receptor antagonists are higly effective in blocking the effects of a cannabinoid agonist in the mouse tetrad model.
(§2) The tetrad model is described, for example, in the publication of A. C. Howlett et al, Intemational Union of Pharmacology XXVII. Classification of Cannabinoid Receptors, Pharmacol Rev 54, 161-202 , 2002 and David R. Compton et al., "In-vivo Characterization of a Specific Cannabinoid Receptor Antagonist (SR141716A) :Inhibition of Tetrahydrocannbinol- induced Responses and Apparent Agonist Activity", J. Pharmacol. Exp. Ther. 277 , 2, 586-594, 1996. The corresponding parts of the description are hereby incorporated by reference.
(§3) Male NMRI mice with a weight of 20-30 g (Harlan, Barcelona, Spain) are used in all of the following experiments.
(§4) Before testing in the behavioral procedures given below, mice are acclimatized to the experimental setting. Pre-Treatment control values are determined for analgesia hot plate latency (in seconds), rectal temperature, sedation and catalepsy.
(§5) In order to determine the agonistic activty of the substance to be tested, the mice are injected intravenously with the substance to be tested or the vehicle alone. 15 minutes after injection, latency in hot plate analgesia is measured. Rectal temperature, sedation and catalepsy are measured 20 minutes after injection.
In order to determine the antagonistic activity the identical procedure is used as for the determination of the agonistic effects, but with the difference that the substance to be evaluated for its antagonistic activity is injectected 5 minutes before the intravenous injection of 1.25 mg/kg Win-55,212 a known cannabinoid-receptor agonist.
(§6) The hot plate analgesia is determined according to the method described in Woolfe D. et al. "The evaluation of analgesic action of pethidine hydrochloride (Demerol)", J. Pharmacol. Exp. Ther. 80, 300-307,1944. The respective description is hereby incorporated by reference and forms part of the present disclosure.
(§7) The mice are placed on a hot plate (Harvard Analgesimeter) at 55 ± 0.5 °C until they show a painful sensation by licking their paws or jumping and the time for these sensations to occur is recorded. This reading is considered the basal value (B). The maximum time limit the mice are allowed to remain on the hot plate in absence of any painful response is 40 seconds in order to prevent skin damage. This period is called the cut-off time (PC).
(§8) Fifteen minuts after the administration of the substance to be tested, the mice are again placed on the hot plate and the afore described procedure is repeated. This period is called the post-treatment reading (PT).
(§9) The degree of analgesia is calculated from the formula : %MPE of Analgesia = (PT-B)/(PC-B) × 100 [formula]
(§10) Sedation and ataxia is determined according to the method described in Desmet L. K. C. et al. "Anticonvulsive properties of Cinarizine and Flunarizine in Rats and Mice", Arzneim. -Forsch. (Frug Res) 25, 9, 1975. The respective description is hereby incorporated by reference and forms part of the present disclosure.
The chosen scoring system is • 0: no ataxia; • 1: doubful; • 2: obvious calmness and quiet; • 3 pronounced ataxia; prior to as well as after treatment. […]

CB1-Receptor = molecular target: T1, CB1-Receptor (Homo sapiens, UniProt P21554); experiment: In-vitro determination of affinity to CB1 receptor (radioligand [3H]-CP55940); assay type: binding
T1 construct: purchased Receptor Biology, Inc
Protocol: (§11) I. In-vitro determination of affinity to CB1/CB2-Receptors
(§12) The in-vitro determination of the affinity of the substituted pyrazoline compounds to CB1/CB2-Rezeptors is carried out as described in the publication of Ruth A. Ross, Heather C. Brockie et al., "Agonist-inverse agonist characterization at CB1 and CB2 cannabinoid receptors of L-759633, L759656 and AM630", British Journal of Pharmacology, 126, 665-672, (1999), whereby the transfected human CB1 and CB2 receptors of Receptor Biology, Inc. are used. The radioligand used for both receptors is [^3H]-CP55940. The respective parts of the description is hereby incorporated by reference and forms part of the present disclosure.

CB2-Receptor = molecular target: T2, CB2-Receptor (Homo sapiens, UniProt P34972); experiment: In-vitro determination of affinity to CB2 receptor (radioligand [3H]-CP55940); assay type: binding
T2 construct: purchased Receptor Biology, Inc
Protocol: as §11, §12

cannabinoid receptors [2] = experiment: Mouse tetrad model, agonistic effect; assay type: in vivo, Male NMRI mice; set-up: key to Agonistic effect D: Sedation: % sedation = mean score (0-3 scale)/3 × 100; Agonistic effect A: Hot-Plate test / Agonistic effect B: Hypothermia / Agonistic effect C: Catalepsy: unit not given here; conditions: 5 mg/kg i.v.
Excerpt: as §1, §2, §3, §4, §5, §6, §7, §8, §9, §10
The chosen scoring system is • 0: no ataxia; • 1: doubful; • 2: obvious calmness and quiet; • 3 pronounced ataxia; prior to as well as after treatment.
The percentage of sedation is determined according to the formula: %of sedation = arithmetic mean/3 × 100 [formula]
Hypothermia is determined according to the method described in David R. Compton et al. "In-vivo Characterization of a Specific Cannabinoid Receptor Antagonist (SR141716A) Inhibition of Tetrahydrocannbinol- induced Responses and Apparent Agonist Activity", J. Pharmacol Exp Ther. 277 , 2, 586-594, 1996. […]

T2 sequence (P34972 whole entry): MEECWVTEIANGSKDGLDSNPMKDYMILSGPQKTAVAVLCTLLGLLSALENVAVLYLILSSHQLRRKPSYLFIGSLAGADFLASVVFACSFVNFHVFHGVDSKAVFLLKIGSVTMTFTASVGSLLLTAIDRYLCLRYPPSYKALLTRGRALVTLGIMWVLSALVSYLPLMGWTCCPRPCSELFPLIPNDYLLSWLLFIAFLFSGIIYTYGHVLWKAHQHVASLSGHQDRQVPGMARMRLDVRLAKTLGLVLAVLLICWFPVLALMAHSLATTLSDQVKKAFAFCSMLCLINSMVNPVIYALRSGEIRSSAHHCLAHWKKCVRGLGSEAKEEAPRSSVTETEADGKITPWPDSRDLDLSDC
T1 sequence (P21554 whole entry): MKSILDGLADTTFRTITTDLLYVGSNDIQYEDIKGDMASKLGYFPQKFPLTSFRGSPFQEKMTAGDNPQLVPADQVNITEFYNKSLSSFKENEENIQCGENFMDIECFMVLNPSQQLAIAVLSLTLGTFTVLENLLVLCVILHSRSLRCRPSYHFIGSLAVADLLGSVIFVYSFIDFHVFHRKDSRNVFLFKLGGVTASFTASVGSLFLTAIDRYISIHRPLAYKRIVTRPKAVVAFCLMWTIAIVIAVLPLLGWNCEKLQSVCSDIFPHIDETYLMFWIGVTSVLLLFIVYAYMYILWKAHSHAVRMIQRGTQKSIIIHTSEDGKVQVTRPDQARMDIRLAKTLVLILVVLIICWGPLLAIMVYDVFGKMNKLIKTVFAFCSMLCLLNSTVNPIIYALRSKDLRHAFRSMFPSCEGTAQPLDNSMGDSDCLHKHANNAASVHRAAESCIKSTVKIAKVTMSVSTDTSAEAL

| SMILES | Antagonistic Effect A: Hot-Plate test (cannabinoid receptors [1]) | Antagonistic Effect B: Hypothermia (cannabinoid receptors [1]) | Antagonistic Effect C: Catalepsy (cannabinoid receptors [1]) | Antagonistic Effect D: Sedation (cannabinoid receptors [1]) | Ki (CB1-Receptor) [µM] | Ki (CB2-Receptor) [µM] | Agonistic effect A: Hot-Plate test (cannabinoid receptors [2]) | Agonistic effect B: Hypothermia (cannabinoid receptors [2]) | Agonistic effect C: Catalepsy (cannabinoid receptors [2]) | Agonistic effect D: Sedation (cannabinoid receptors [2]) |
| --- | --- | --- | --- | --- | --- | --- | --- | --- | --- | --- |
| O=C(NN1CCCCC1)C1=NN(c2ccc(Cl)cc2Cl)C(c2ccc(Cl)cc2)C1 (stereo not shown) [Example 1, N-piperidinyl-5-(4-chlorophenyl)-1-(2,4-dichlorophenyl)-4,5-dihydro-1H-pyrazole-3-carboxamide] | 74 | 100 | 100 | 100 | < 0.025 | > 1 | 0 | 0 | 0 | 0 |
| O=C(C1=NN(c2ccc(Cl)cc2Cl)C(c2ccc(Cl)cc2)C1)N1CCCCC1 (stereo not shown) [Example 5, (5-(4-Chloro-phenyl)-1-(2,4-dichloro-phenyl)-4,5-dihydro-1 H-pyrazol-3-yl]-piperidin-1-yl-methanone] | 50 | 40 | 20 | 20 |  | ~1 | 0 | 50 | 0 | 0 |

Reference: EP1743640A1, “Use of substituted pyrazoline compounds for the preparation of paediatric medicaments” (LABORATORIOS DEL DR. ESTEVE, S.A., priority 2005, dated 2007)
